Laboratory results: ChEMBL document CHEMBL5335792, “Chemical exploration of TGR5 functional hot-spots: Synthesis and structure-activity relationships of C7- and C23-Substituted cholic acid derivatives” (Eur J Med Chem, 2023)

Experiment: physchem
Settings: 0.15 M sodium salt

C[C@H](CCC(=O)O)[C@H]1CC[C@H]2[C@@H]3[C@H](O)C[C@@H]4C[C@H](O)CC[C@]4(C)[C@H]3C[C@H](O)[C@]12C [CHOLIC ACID]
solubility: 12 mM
